Experimental data published in US9353090B2, “Heterocyclic carboxylic acids as activators of soluble guanylate cyclase” (Boehringer Ingelheim International GmbH, priority 2014, dated 2016).
Values after ≈ are worked out from the molar mass of the structure shown.

Legend:
[1] = Human liver microsome (HLM) metabolic stability assay; assay type: in vitro ADME; conditions: human liver microsomes
Description: The 5 time point, high-throughput human liver microsome (HLM) metabolic stability assay is designed to determine in vitro compound metabolism. Compounds are incubated with HLMs at a concentration of 1 uM, at 37° C., for a total of 60 min. The percent of compound remaining at 5, 15, 30, and 60 min is used to calculate the t1/2 (min), CLint (mL/min/kg), CLh (mL/min/kg), and % Qh. The assay is based on a 96-well format and can accommodate up to 92 compounds per plate (n=1).
Using the 96-well multi-channel head, the Biomek FX, equipped with a Peltier heating block/shaker, is programmed to accomplish the following steps: • 1. Pipette 175 uL of 1.15 mg/mL microsomes into each of the 96 conical inserts (Analytical Sales and Products, catalog number 96PL05) that fit into the plate of the Peltier heating block/shaker (the incubation plate) • 2. Add 5 uL of compounds from the assay plate to the microsomes and shake the mixture at 600 rpm at 42.1° C. for 10 min (a setting of 42.1° C. on the Peltier is required for the samples to incubate at 37° C.) • 3. After 10 min, prompt the user to add the NADPH plate to the deck and add 20 uL from the NADPH plate to the incubation plate to start the reaction • 4. Add 215 uL of 100%, cold acetonitrile containing an internal standard(s) to a 0 minute, 5 minute, 15 minute, 30 minute, and 60 minute “quench” plate • 5. At 0 min, 5 min, 15 min, 30 min, and 60 min into the incubation, aspirate 12 uL from the incubation mixture and add it to the quench solution to stop the reaction • 6. Add 185 uL HPLC grade water to each well of the 0, 5, 15, 30 and 60 minute quench plates to dilute compounds to the appropriate concentration for the mass spectrometer
After all time points are collected, the quench plates are sealed with 96-well pierceable plate mats or heat sealing foil and centrifuged at 3000 rpm for 15 min to pellet the microsomes.
The plates are analyzed using LC/MS/MS with electron spray ionization (ESI) and the previously determined MRM transitions. The LC method includes the following parameters:
Using an Excel template in Activitybase, the peak areas corresponding to 5, 15, 30 and 60 min are compared to the peak area at 0 min to calculate the percent of remaining compound using the following equation:
Percent compound remaining=(AUC at Time t min/AUC at Time 0 min)×100 where t=0, 5, 15, 30 or 60 min.
Time (min) is plotted against the natural logarithm (Ln) of the percent compound remaining to determine the slope. The slope is used to calculate t1/2 (min) using the equation, t1/2=0.693/slope.
Clh, Hepatic clearance • Hepatic flow*f(u)*Clint/(hepatic flow+f(u)*Clint)
Qh, % Hepatic blood flow • (Clh/Hepatic flow)*100
Preferred compounds have % Qh values of less than 24.

physchem = conditions: kinetic from dmso stock
[2] = molecular target: human soluble guanylate cyclase alpha 1 and beta 1 subunits (sGC) (Homo sapiens (Human), UniProt Q02108+Q02153); assay: sGC cellular activator assay (cGMP, HTRF), in the presence and absence of 50% human serum; assay type: cell-based; conditions: CHO cells stably expressing human sGC alpha 1/beta 1, preincubated with 40 microM ODQ; cGMP by HTRF; Table 2 does not state whether with or without 50% human serum
Description: The sGC cellular activator assay is performed in the presence and absence of 50% human serum (HS) using Chinese hamster ovary cells that have been stably transfected to express the human soluble guanylate cyclase alpha 1 and beta 1 subunits (sGC). Cells are preincubated with 40 microM 1H-[1,2,4]oxadiazolo[4,3-a]quinoxalin-1-one (ODQ), an sGC inhibitor, for one h in buffer containing 0.1% bovine serum albumin and 3-isobutyl-1-methylxanthine (IBMX). Concentration response curves are prepared for test compounds in DMSO. An intermediate dilution of the compounds is performed in either buffer containing IBMX or type AB HS containing IBMX. Diluted compounds are added to cells and they are incubated at room temperature for thirty min. cGMP is measured using a CisBio homogeneous time resolved fluorescence kit and the EC50 is calculated for each compound.
Representative compounds of the present invention were tested for activity the above assay. Preferred compounds have an EC50 of <1,000 nM in the above assay and more preferred compounds have an EC50<200 nM.

[3] = pH 2.2, aqueous buffer, Solubility (pH 2.2)
[4] = pH 4.5, aqueous buffer, Solubility (pH 4.5)
[5] = pH 6.8, aqueous buffer, Solubility (pH 6.8)

Chain of human soluble guanylate cyclase alpha 1 and beta 1 subunits (sGC) (Q02108 whole entry partner): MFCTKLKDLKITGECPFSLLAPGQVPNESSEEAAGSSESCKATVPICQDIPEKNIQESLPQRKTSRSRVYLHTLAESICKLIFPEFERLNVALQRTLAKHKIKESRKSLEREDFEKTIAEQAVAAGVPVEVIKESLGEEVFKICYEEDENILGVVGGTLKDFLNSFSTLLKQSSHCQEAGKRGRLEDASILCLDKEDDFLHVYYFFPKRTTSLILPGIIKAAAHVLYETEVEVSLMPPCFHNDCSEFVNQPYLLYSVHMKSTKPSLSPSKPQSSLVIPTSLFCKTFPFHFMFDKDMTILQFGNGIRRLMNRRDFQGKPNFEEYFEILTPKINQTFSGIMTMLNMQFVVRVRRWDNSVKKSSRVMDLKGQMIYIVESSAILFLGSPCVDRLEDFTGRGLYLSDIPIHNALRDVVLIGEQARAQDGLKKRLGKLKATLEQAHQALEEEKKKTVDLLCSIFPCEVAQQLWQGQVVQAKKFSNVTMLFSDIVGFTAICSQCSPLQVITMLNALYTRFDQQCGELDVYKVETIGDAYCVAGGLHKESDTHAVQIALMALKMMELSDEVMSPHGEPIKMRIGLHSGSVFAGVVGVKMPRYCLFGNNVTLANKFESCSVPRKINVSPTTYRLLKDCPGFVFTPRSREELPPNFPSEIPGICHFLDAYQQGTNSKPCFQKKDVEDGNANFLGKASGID
Chain of human soluble guanylate cyclase alpha 1 and beta 1 subunits (sGC) (Q02153 whole entry): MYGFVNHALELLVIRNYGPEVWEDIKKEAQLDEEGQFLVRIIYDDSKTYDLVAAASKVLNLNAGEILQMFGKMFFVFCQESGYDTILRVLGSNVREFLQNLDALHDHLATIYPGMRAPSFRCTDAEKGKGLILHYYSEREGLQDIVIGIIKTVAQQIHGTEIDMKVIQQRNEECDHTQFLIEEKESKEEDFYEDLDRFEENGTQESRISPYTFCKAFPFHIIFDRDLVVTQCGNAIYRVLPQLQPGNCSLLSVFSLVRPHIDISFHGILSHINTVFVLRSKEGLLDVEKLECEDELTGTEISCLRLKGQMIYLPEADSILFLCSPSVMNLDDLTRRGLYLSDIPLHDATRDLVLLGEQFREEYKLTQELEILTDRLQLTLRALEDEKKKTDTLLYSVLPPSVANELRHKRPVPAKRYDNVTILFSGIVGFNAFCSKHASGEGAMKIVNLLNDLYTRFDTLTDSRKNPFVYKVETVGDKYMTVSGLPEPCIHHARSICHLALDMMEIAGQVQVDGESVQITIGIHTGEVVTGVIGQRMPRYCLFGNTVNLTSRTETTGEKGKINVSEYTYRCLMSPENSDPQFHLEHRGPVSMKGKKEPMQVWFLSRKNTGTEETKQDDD

Row | Metabolic stability (Qh %), % hepatic blood flow [1] [%] | solubility at 24 h (physchem; [3]) [µg/mL] | solubility at 24 h (physchem; [4]) [µg/mL] | solubility at 24 h (physchem; [5]) [µg/mL] | EC50 [2] [nM] | Compound
1 | <24 | 48 (≈ 83.7 µM) | < 0.1 | 9.2 (≈ 16 µM) | 29 | Cc1ccc(OCc2ccc3c(c2)CCN(C2CCOCC2)C3=O)c(-c2csc(N3CC[C@@]4(C(=O)O)C[C@H]4C3)n2)c1 [Compound 192, (1R,6S)-3-(4-{5-Methyl-2-[1-oxo-2-(tetrahydro-pyran-4-yl)-1,2,3,4-tetrahydro-isoquinolin-6-ylmethoxy]-phenyl}-thiazol-2-yl)-3-aza-bicyclo[4.1.0]heptane-6-carboxylic acid]
2 | <24 | 110 (≈ 198 µM) | 66 (≈ 119 µM) | 66 (≈ 119 µM) | 43 | Cc1cccc(-c2ccnc(N3C[C@@H]4C[C@]4(C(=O)O)C3)n2)c1OCc1ccc2c(c1C)CCN(C1CCOCC1)C2 [Compound 189]
3 | <24 | 110 (≈ 203 µM) | 90 (≈ 166 µM) | 73 (≈ 135 µM) | 19 | COc1cc(COc2c(C)cccc2-c2cccc(N3C[C@@H]4C[C@]4(C(=O)O)C3)n2)cc2c1CN(C1COC1)CC2 [Compound 28]
4 | <24 | 128 (≈ 201 µM) | 54.1 (≈ 84.6 µM) | 18.5 (≈ 28.9 µM) | 2 | CCO[C@@H]1CN(c2nc(-c3cc(C)ccc3OCc3cc(OC)c4c(c3F)CCN(C3CCOCC3)C4)cs2)CC[C@@H]1C(=O)O [Compound 272]
5 | <24 | 140 (≈ 259 µM) | 120 (≈ 222 µM) | 57 (≈ 106 µM) | 7 | O=C(O)[C@@]12CCN(c3cccc(-c4ccccc4OCc4ccc5c(c4)CCN(C4CCOCC4)C5)n3)C[C@@H]1C2 [Compound 1, (1R,6S)-3-(6-{2-[2-(Tetrahydro-pyran-4-yl)-1,2,3,4-tetrahydro-isoquinolin-6-ylmethoxy]-phenyl}-pyridin-2-yl)-3-aza-bicyclo[4.1.0]heptane-6-carboxylic acid]
6 | <24 | 139 (≈ 228 µM) | 88.9 (≈ 145 µM) | 77.1 (≈ 126 µM) | 16 | CO[C@@H]1CN(c2nc(-c3cccc(Cl)c3OCc3ccc4c(c3C)CCN(C3CCOCC3)C4)cs2)CC[C@@H]1C(=O)O [Compound 208]
7 | <24 | 130 (≈ 232 µM) | 2.8 (≈ 5 µM) | 1.8 (≈ 3.22 µM) | 44 | Cc1ccc(OCc2cc(C)c3c(c2C)CCN(C2COC2)C3)c(-c2csc(N3CC[C@@]4(C(=O)O)C[C@H]4C3)n2)c1 [Compound 126]
8 | <24 | 120 (≈ 198 µM) | 61 (≈ 101 µM) | 55 (≈ 90.8 µM) | 26 | CO[C@H]1CN(c2nc(-c3cc(C)ccc3OCc3ccc4c(c3C)CCN(C3CCOCC3)CC4)cs2)CC[C@H]1C(=O)O [Compound 182]
9 | <24 | 116 (≈ 199 µM) | 60.3 (≈ 104 µM) | 59.6 (≈ 102 µM) | 7 | CO[C@@H]1CN(c2nc(-c3cccc(C)c3OCc3ccc4c(c3F)CCN(C3COC3)CC4)cs2)CC[C@@H]1C(=O)O [Compound 267]
10 | 53 | 110 (≈ 187 µM) | 8.5 (≈ 14.5 µM) | 0.95 (≈ 1.62 µM) | 11 | Cc1ccc(OCc2ccc3c(c2C)CCN(C2CCCOC2)CC3)c(-c2csc(N3CC[C@@]4(C(=O)O)C[C@H]4C3)n2)c1 (some centres unmarked) [Compound 134]
11 | 34 | 131 (≈ 224 µM) | 98.1 (≈ 167 µM) | 80.1 (≈ 137 µM) | 578 | CO[C@H]1CN(c2cccc(-c3cccc(C)c3OCc3cc(C)c4c(c3)CCN(C3CCOCC3)C4)n2)CC[C@@H]1C(=O)O [Compound 298]
12 | 58 | 137 (≈ 240 µM) | 99.6 (≈ 174 µM) | 80.5 (≈ 141 µM) | 14 | CO[C@H]1CN(c2cccc(-c3cccc(C)c3OCc3ccc4c(c3C)CCN(C3COC3)CC4)n2)CC[C@H]1C(=O)O [Compound 282]
13 | 47 | 112 (≈ 187 µM) | 41.5 (≈ 69.4 µM) | 50.5 (≈ 84.4 µM) | 3 | CO[C@H]1CN(c2nc(-c3cccc(Cl)c3OCc3ccc4c(c3)[C@@H](C)CN(C3COC3)CC4)cs2)CC[C@H]1C(=O)O [Compound 321]
14 | 54 | 163 (≈ 276 µM) | 116 (≈ 197 µM) | 23.8 (≈ 40.4 µM) | 18 | Cc1nccnc1C(C)N1CCc2c(ccc(COc3ccccc3-c3cccc(N4CC[C@@]5(C(=O)O)C[C@H]5C4)n3)c2C)C1 (some centres unmarked) [Compound 309]
15 | <24 | 100 (≈ 190 µM) | 88 (≈ 167 µM) | 69 (≈ 131 µM) | 6 | Cc1cc(COc2c(C)cccc2-c2cccc(N3C[C@@H]4C[C@]4(C(=O)O)C3)n2)cc2c1CN(C1COC1)CC2 [Compound 23]
16 | 34 | 167 (≈ 256 µM) | 136 (≈ 209 µM) | 133 (≈ 203 µM) | 9 | COC[C@H]1N(c2cccc(-c3cccc(C(F)(F)F)c3OCc3cc(C)c4c(c3)CCN(C3CCOCC3)C4)n2)C[C@@H]2C[C@@]21C(=O)O [Compound 220]
17 | 38 | 120 (≈ 209 µM) | < 0.1 | 75 (≈ 131 µM) | 105 | COC[C@H]1N(c2nc(-c3cccc(C)c3OCc3ccc4c(c3C)CCN(C3CCC3)C4)cs2)C[C@@H]2C[C@@]21C(=O)O [Compound 160]
18 | <24 | 135 (≈ 215 µM) | 56.6 (≈ 90.1 µM) | 51.8 (≈ 82.5 µM) | 4 | COc1cc(COc2c(Cl)cccc2-c2csc(N3CC[C@@H](C(=O)O)[C@@H](OC)C3)n2)cc2c1CN(C1CCOCC1)CC2 [Compound 264]
19 | <24 | 158 (≈ 263 µM) | 152 (≈ 253 µM) | 139 (≈ 232 µM) | 245 | COC[C@H]1N(c2cccc(-c3cccc(C)c3OCc3cnc4c(c3)CCN(C3CCOCC3)CC4)n2)C[C@@H]2C[C@@]21C(=O)O [Compound 317]
20 | 30 | 120 (≈ 196 µM) | 91 (≈ 148 µM) | 79.3 (≈ 129 µM) | 140 | COCc1cc(COc2c(C)cccc2-c2cccc(N3C[C@@H]4C[C@]4(C(=O)O)[C@H]3COC)n2)cc2c1CN(C1CCOC1)CC2 (some centres unmarked) [Compound 280]
21 | <24 | 127 (≈ 223 µM) | 101 (≈ 176 µM) | 81.2 (≈ 142 µM) | 19 | CO[C@@H]1CN(c2cccc(-c3cccc(C)c3OCc3ccc4c(c3C)CN(C3CCOCC3)C4)n2)CC[C@@H]1C(=O)O [Compound 307]
22 | <24 | 130 (≈ 222 µM) | 110 (≈ 188 µM) | 81 (≈ 138 µM) | 110 | CO[C@H]1CN(c2cccc(-c3cc(C)ccc3OCc3ccc4c(c3C)CCN(C3CCOCC3)C4)n2)CC[C@H]1C(=O)O [Compound 71]
